Format in all cases: ADME, Microsome
Data set [1] deals with Liver microsomes. The experiment in a line: Irreversible covalent binding in human liver microsomes at 100 uM after 30 mins. The conditions noted are these: 0.5 h.
Data set [2] concerns Liver microsomes. The experiment in a line: Irreversible covalent binding in human liver microsomes at 10 uM after 1 hr.
Data set [3] deals with Liver microsomes. The data set is described as follows: Irreversible covalent binding in rat liver microsomes after 1 hr. On the technique in general: Microsomes from liver hold many membrane-bound enzymes, among them those of drug oxidation.

For the molecule `COCCN1CCC(Cc2ccc(C(=O)NCc3cnc(C#N)nc3NCC(C)(C)C)cc2)CC1`, the Activity came to 0.5% in the data set on Liver microsomes [1] and 70 pmol/mg in the data set on Liver microsomes [2].
Take `N#CN1CCC(NS(=O)(=O)c2ccccc2)C1` (configuration not stated): the Activity is given as 550 pmol/mg in the data set on Liver microsomes [3], 3.6% in the data set on Liver microsomes [1] and 460 pmol/mg in the data set on Liver microsomes [2].
Take `[3H]C([3H])([3H])S(=O)(=O)c1ccc(-c2ccc([C@H](N[C@@H](CC(C)C)C(=O)NCC#N)C(F)(F)F)cc2)cc1`: the values for the Activity in the data set on Liver microsomes [1] and with Liver microsomes [2] were 0.06% and 7 pmol/mg, respectively.

The record behind these values is ChEMBL document CHEMBL1143808, “A generally applicable method for assessing the electrophilicity and reactivity of diverse nitrile-containing compounds” (Bioorg Med Chem Lett, 2007).
